Assay results taken from US5817828A, “Pyrazole derivatives” (Nissan Chemical Industries, Ltd., priority 1993, dated 1998).

Columns and labels:
[1] = test system: Angiotensin II (AT2) Receptor; experiment: Test for Inhibition of Binding to Angiotensin II (AT2) Receptor; details: 10^-6 M compound; 0.1 nM ^125 I-AngII; bovine brain specimen; 37° C., 30 minutes
Protocol: Test for Inhibition of Binding to Angiotensin II (AT2) Receptor:
The effect of the compounds of the present invention for inhibiting the binding activity of Angiotensin II (AngII) to the bovine brain receptor were tested, according to the method by J. P. Bennett, Jr. et al. [J. Biol. Chem., 251, 7423-7430 (1976)].
10^-6 M of the compound of the present invention to be tested was added to an aqueous solution containing a predetermined amount of a bovine brain specimen and 0.1 nM of ^125 I-AngII and incubated at 37° C. for 30 minutes. The resulting solution was separated through a glass fiber filter to terminate the reaction. The radioactivity bonded to the filter was quantified by a γ-counter.

[2] = test system: spontaneous hypertensive male rat; experiment: Test for Hypotensive Effect (oral, spontaneous hypertensive rat); format: in vivo; details: 30 mg/kg, spontaneous hypertensive male rat (10-week age)
Protocol: Test for Hypotensive Effect
The compounds of the present invention to be tested were dissolved in a physiological saline solution and was orally administered to a spontaneous hypertensive male rat (10-week age). The blood pressure of the rat was measured, via a pressure transducer through the catheter that had previously been introduced into its aorta from its femoral artery. The variation in the blood pressure was observed from before the application of the compound to 20 hours after the application thereof.

angiotensin II (AngII) = experiment: Test for Antagonistic Effect against Angiotensin (inhibition of AngII contraction of rabbit thoracic aorta ring); format: cell-based; details: Oryctolagus cuniculus, AngII 10^-8 M, corrected using DMSO, read-out: Percentage of Inhibition of Contraction; for inhibition at 0.1 µM: 1 × 10^-7 M compound; for inhibition at 0.01 µM: 1 × 10^-8 M compound
Protocol: Test for Antagonistic Effect against Angiotensin:
A rabbit was sacrificed while anesthetized with pentobarbital, and immediately its thoracic aorta was removed. This was cut into a ring specimen, kept at 37° C. and hung in a nutrient liquid (Krebs-Henseleit solution) aerated with a mixed gas comprising 95% oxygen and 5% carbon dioxide, whereupon its isometric contraction was measured. The specimen was equilibrated for one hour, with replacement of the nutrient liquid every 20 minutes, and thereafter angiotensin II (AngII: 10^-8 M) was applied thereto to cause its contraction. To evaluate the effect of the compounds of the present invention, the compound to be tested (10^-7 M or 10^-8 M) was applied as pre-treatment to the specimen in 20 minutes before the fourth application of AngII thereto, the percentage of inhibiting the contraction caused by AngII was obtained on the basis of the third contraction caused by AngII of being 100%. The percentage was corrected, using dimethylsulfoxide (DMSO).

For `CCCN(Cc1ccc(-c2ccccc2-c2nnn[nH]2)cc1)c1nn(CCc2ccccc2)c(Br)c1C(=O)O` [compound 4], the “Percentage of Inhibition” value [1] was 55.1%, the “Time after the administration at which the largest percentage of blood pressure depression was obtained” value [2] was 10 h and the “Largest Percentage of Blood Pressure Depression” value ([2]; observed to 20 hours) was 29.6%. For the same molecule, the inhibition at 0.1 µM (angiotensin II (AngII)) was 85% and the inhibition at 0.01 µM (angiotensin II (AngII)) was 40%.

`CCCN(Cc1ccc(-c2ccccc2-c2nnn[nH]2)cc1)c1nn(CCc2ccccc2)c(Cl)c1C(=O)O` [compound 56] gave an inhibition at 0.1 µM (angiotensin II (AngII)) of 84% and an inhibition at 0.01 µM (angiotensin II (AngII)) of 51%.

`CCCN(Cc1ccc(-c2ccccc2-c2nnn[nH]2)cc1)c1nn(CCc2ccccc2)c(-c2ccccc2)c1C(=O)O` [compound 61] showed an inhibition at 0.1 µM (angiotensin II (AngII)) of 77% and an inhibition at 0.01 µM (angiotensin II (AngII)) of 34%.

Molecule `CCCN(Cc1ccc(-c2ccccc2-c2nnn[nH]2)cc1)c1nn(CCc2ccccc2)c(-c2ccc(OC)cc2)c1C(=O)O` [compound 64] has an inhibition at 0.1 µM (angiotensin II (AngII)) of 92% and an inhibition at 0.01 µM (angiotensin II (AngII)) of 29%.

Work on `CCCN(Cc1ccc(-c2ccccc2-c2nnn[nH]2)cc1)c1nn(CCc2ccccc2)c(-c2cccc(Br)n2)c1C(=O)O` [compound 67] yielded an inhibition at 0.1 µM (angiotensin II (AngII)) of 35% and an inhibition at 0.01 µM (angiotensin II (AngII)) of 13%.

Molecule `CCCN(Cc1ccc(-c2ccccc2-c2nnn[nH]2)cc1)c1nn(CCc2ccccc2)c(-c2cccs2)c1C(=O)O` [compound 68] has an inhibition at 0.1 µM (angiotensin II (AngII)) of 35% and an inhibition at 0.01 µM (angiotensin II (AngII)) of 18%.

Work on `CCCN(Cc1ccc(-c2ccccc2-c2nnn[nH]2)cc1)c1nn(CCc2ccccc2)c(C(=O)c2ccccc2)c1C(=O)O` [compound 71] yielded an inhibition at 0.1 µM (angiotensin II (AngII)) of 36% and an inhibition at 0.01 µM (angiotensin II (AngII)) of 14%.

`CCCNc1c(C(=O)O)c(N(CCC)Cc2ccc(-c3ccccc3-c3nnn[nH]3)cc2)nn1CCc1ccccc1` [compound 72] was tested, and the inhibition at 0.1 µM (angiotensin II (AngII)) was 15% and the inhibition at 0.01 µM (angiotensin II (AngII)) was 7%.
